Assay results from PMC6143625, “A high throughput screen for next-generation leads targeting malaria parasite transmission” (Nature Communications, 2018).
Several values for one entry are separate records, joined by “and”; a condition that tells them apart may be missing. Equal values may be shown once.

Key:
NF54 stage V gametocytes = assay: Gametocytocidal MitoTracker-based viability assay (SaLSSA); assay type: cell-based, Plasmodium falciparum NF54; conditions: for IC50: Plasmodium falciparum, NF54, 72h incubation, read-out: Pf Stage V GCT (mitotracker assay) IC50
Method: As another independent assessment of the metabolic viability of compound-treated stage V gametocytes, the Saponin-lysis Sexual Stage Assay (SaLSSA) was employed. A volume of 100 nl of test compounds were pre-dispensed in 384-well plates (781091-2B, Greiner) in 12-point dose response (25 µM to 1.41 × 10^−4 µM), prior to the addition of synchronous NF54 stage V gametocytes (40 µl at 0.70% gametocytaemia). Assay plates were then incubated for 72 h in a low oxygen environment (92% N2, 5% CO2, 3%O2) before a 10 µl MitoTracker Red CMXRos (2.5 µM) and saponin solution (0.13%w/v) was added. Plates were returned to 37 °C for 1 h to allow for complete red blood cell lysis, after which viable gametocytes were detected using an Operetta high-content imaging system. Analysis was performed using the Harmony package software, with potency calculated relative to puromycin (positive control) and DMSO (negative control).

[1] = system: P. falciparum male gametocytes; assay: Pf DGFA wash-out format, male readout; assay type: cell-based; conditions: Plasmodium falciparum; 48h preincubation/wash-out
[2] = system: P. falciparum female gametocytes; assay: Pf DGFA wash-out format, female readout; assay type: cell-based; conditions: Plasmodium falciparum; 48h preincubation/wash-out
[3] = Parallel artificial membrane permeability assay (PAMPA); assay type: in vitro ADME
Method: (§1) DMPK analyses were performed by the Dundee University Drug Discovery Unit and BPCA/DDD599 stability analysis were undertaken by chemists at GlaxoSmithKline using in-house, standardised approaches.

[4] = system: P. berghei 507 strain in mice, transmission to Anopheles stephensi; assay: P. berghei mosquito (direct) feeding assay in infected mice; assay type: in vivo, Plasmodium berghei; conditions: for Asexual parasitemia (%) Before treatment / Gametocytemia (%) Before treatment / Asexual parasitemia (%) 24hr After treatment / Gametocytemia (%) 24hr After treatment: 50mg/kg; for Asexual parasitemia (%) Before treatment / Gametocytemia (%) Before treatment: baseline
Method: Six- to eight-week female T0 mice were treated with phenylhydrazine 3 days prior to intraperitoneal (IP) inoculation with 100 µl of mouse blood infected with the constitutively GFP expressing P. berghei 507 strain[39]. On day 3 after infection, thin blood smears were taken from tail blood to quantify parasitaemia and gametocytaemia. […] […] Twenty-four hours after feeding, unfed mosquitoes were removed and remaining mosquitoes maintained for a further 9 days on sucrose solution. Mosquito midguts were then dissected, imaged and oocysts quantified by semi-automated computer analysis.

[5] = Aqueous solubility (DMPK); assay type: physicochemical; conditions: aqueous medium
Method: as §1

[6] = system: P. falciparum male gametogenesis; assay: Phenotypic immunofluorescence assay of male gamete formation; assay type: cell-based, Plasmodium falciparum; conditions: 10 µM, 24 h treatment, 0–20 min post induction
Method: In vitro evolution followed by whole-genome analysis is the primary approach currently used for understanding how compounds act in malaria parasites. As it is not currently feasible to generate resistant mutants to compounds that are only active in the gametocyte stage (resistance generation requires extensive rounds of replication in the presence of compound), phenotypic immunofluorescence assays were performed to evaluate compound activity on male gamete formation. Gametocytes treated with 10 µM of each compound were sampled at 0, 2, 3, 4, 6, 8, 10, and 20 min post induction of gamete formation before imaging (Fig. 4). Individual male cells were then extracted from the images and analysed for shape and haploid chromosome number/DNA content to quantitatively measure the progression of DNA replication (n = 198–668 cells) (Fig. 5a).
Day 14 gametocyte culture was divided into 4 ml aliquots and treated either with DMSO or 10 µM test compound. After 24 h, 500 µl aliquots of the non-activated gametocytes were fixed in an equal volume of 8% paraformaldehyde (PFA) warmed to 37 °C to generate Time = 0 min (t = 0) samples. Gamete formation was induced in the remainder of the cultures by cooling to RT and addition of 500 µl ookinete medium. At t = 2, 3, 4, 6, 8, 10, and 20 min 500 µl of culture was removed and immediately fixed in equal volume of 8% PFA at room temperature for 15 min. Fixed cells were diluted in PBS and allowed to settle onto poly-L-lysine-coated glass coverslips overnight. The next day, cells were washed in PBS, permeabilized in 0.1% Triton X-100 and blocked in PBS + 10% FBS. Cells were stained with mouse anti-alpha tubulin (Sigma) clone DM1A (1:500 dilution) and rabbit anti-Glycophorin A (Abcam) clone EPR8200 (1:1000 dilution). Staining was visualised with anti-mouse […] and anti-rabbit Alexa555 (Thermo-Fisher) both at 1:1000 dilution. Coverslips were mounted onto glass slides with VectaShield mountant (Vector Laboratories) containing 4′,6-diamidino-2-phenylindole (DAPI) to visualise cellular DNA. Cells were imaged at random (n = 195–668 cells per test compound) using a Nikon Ti-E widefield microscope using a × 100 objective lens and taken in 0.2 µm slice z-stack images to capture the whole cell. All images were converted to maximum intensity projections in NIS Elements v4.20 and all further image processing performed in ICY. Individual cells were manually selected and automatically extracted from each image using the Active Contours plugin gated to the tubulin staining. Using the ROI Statistics plugin, the following parameters were calculated for each cell and exported to MS Excel: Cell area, Cell roundness, Cell elongation, and Average intensity of blue channel (DNA). […] Outlier cells from the curve were all exflagellating (Supplementary Fig. 6). These two parameters were combined as a ratio of roundness:elongation to produce the parameter Cell shape. Cellular DNA content was estimated by multiplying the average pixel intensity of the blue channel (after subtracting the background intensity of an empty area in the same parent image) with the total cell area.

[7] = system: P. falciparum transmission to Anopheles stephensi mosquitoes; assay: P. falciparum standard membrane-feeding assay (SMFA), luciferase oocyst readout; assay type: in vivo, Plasmodium falciparum; conditions: 10 µM
Method: SMFAs were performed commercially by TropiQ Health Sciences (Nijmegen, The Netherlands)[26]. Cultures of mature stage V gametocytes of P. falciparum expressing a GFP-Luciferase fusion protein under the control of the hsp70 promoter were treated with DMSO or 10 µM of test compound for 24 h (indirect mode). They were then mixed with uninfected erythrocytes and pelleted. The cell pellet was resuspended in human serum to form the blood meal and fed to Anopheles stephensi mosquitoes. […] Eight days after infection, mosquitoes were individually processed and their lysate assessed for luciferase activity in comparison to uninfected mosquitoes.

[8] = per mouse, listed as DDD291, 50 mg/kg
[9] = per mouse, listed as DDD504, 50 mg/kg

Structure (SMILES)	IC50 (NF54 stage V gametocytes)	IC50 [1]	IC50 [2]	further results
Cc1ccc(CN(c2cc(C)nc3nc(C(F)(F)F)nn23)C2CC2)cc1 [DDD01063654]	> 10000 nM			
CC(NCC1CCN(CCO)CC1)c1ccc(OC(F)(F)F)cc1 (centres unmarked) [DDD01073716]	7070 nM	1080 nM	1220 nM	
CN1CCC(NCC(O)c2cccc(OCc3ccccc3)c2)CC1 (centres unmarked) [DDD01079164]	4970 nM	1300 nM	1070 nM	
OC1(CN2CCC(Oc3cccc(C(F)(F)F)c3)CC2)CCNC1 (centres unmarked) [DDD01245291]	> 12500 nM	680 nM	1510 nM	Papp [3]: 0.59 ×10⁻⁶ cm/s; transmission blocking efficacy at the oocyst level ([4]; 50 mg kg^−1 IP, 24 h before mosquito feeding): not possible to measure a reduction in transmission at the oocyst level; suppression of gametocytaemia compared to vehicle-only controls ([4]; 50 mg kg^−1 IP, 24 h exposure): ~ 6 fold; effect on asexual parasitaemia ([4]; 50 mg kg^−1 IP, single dose): did not affect asexual parasitaemia; Infection Prevalence (%) ([4]; Dose 24hr prior to feeding, per mouse): 100%; Mean oocysts per mosquito ([4]; Dose 24hr prior to feeding, per mouse, listed as DDD291): 239.06 and 211.28; Asexual parasitemia (%) Before treatment [4, 8]: 0.86% and 0.55%; Gametocytemia (%) Before treatment [4, 8]: 0.32% and 0.16%; Asexual parasitemia (%) 24hr After treatment [4, 8]: 5.70% and 4.55%; Gametocytemia (%) 24hr After treatment [4, 8]: 0.30% and 0.51%; solubility [5]: > 250 µM; phenotype of male gametogenesis (IFA) [6]: arrested after rounding up; prevalence of infection, % of the DMSO control ([7]; indirect mode): no infected mosquitoes observed; mean normalised luciferase intensity ([7]; indirect mode, 24 h gametocyte incubation, oocysts 8 days later): 1.37 arbitrary units; Prevalence ([7]; mode indirect, per experiment): 0.0%; Average oocyst intensity ([7]; mode indirect, per experiment, listed as DDD291): 2.7 and 3.2 and 3.3
CC(c1cccs1)N(C)Cc1cnc(-c2ccccn2)nc1 (centres unmarked) [DDD01246628]	200 nM			
CC(C)CN1CCn2nc(CNc3ncnc4[nH]ccc34)cc2C1 [DDD01249504]	> 25000 nM	2740 nM	> 25000 nM	Asexual parasitemia (%) Before treatment [4, 9]: 0.74% and 0.98%; Gametocytemia (%) Before treatment [4, 9]: 0.21% and 0.15%; Asexual parasitemia (%) 24hr After treatment [4, 9]: 5.35% and 7.03%; Gametocytemia (%) 24hr After treatment [4, 9]: 1.21% and 1.88%; phenotype of male gametogenesis (IFA) [6]: the second and third divisions were delayed with a smaller proportion of cells reaching 8n
Cc1nn(C)c(Oc2ccc(Cl)cc2)c1CN1CCC(CN)C1 (centres unmarked) [DDD01254274]	> 12500 nM	2840 nM	> 25000 nM	
CCc1ccc(C2c3nc[nH]c3CCN2Cc2nccn2CC)nc1 (centres unmarked) [DDD01254473]	80 nM	5740 nM	710 nM	activity in the mitotracker assay (NF54 stage V gametocytes; profiling): submicromolar
CCOc1ccc2ccccc2c1CNCC1CCNCC1.Cl.Cl [DDD01255740]	3570 nM	670 nM	1650 nM	
Cc1ccc(-c2cc(C(=O)NCCC3=CCCCC3)[nH]n2)o1 [DDD01255968]	> 25000 nM	2190 nM	> 12500 nM	phenotype of male gametogenesis (IFA) [6]: did not replicate their DNA and remained with 1n genome copies
CCn1ncc(Br)c1CN(C)S(=O)(=O)c1ccc(C)cc1 [DDD01259521]	> 25000 nM			
